Measurements taken from paper PMC13266984 (Journal of medicinal chemistry, 2026).

Target: T1, Human ALDH3A1 (Homo sapiens, UniProt P30838)
T1 sequence (P30838 1-453): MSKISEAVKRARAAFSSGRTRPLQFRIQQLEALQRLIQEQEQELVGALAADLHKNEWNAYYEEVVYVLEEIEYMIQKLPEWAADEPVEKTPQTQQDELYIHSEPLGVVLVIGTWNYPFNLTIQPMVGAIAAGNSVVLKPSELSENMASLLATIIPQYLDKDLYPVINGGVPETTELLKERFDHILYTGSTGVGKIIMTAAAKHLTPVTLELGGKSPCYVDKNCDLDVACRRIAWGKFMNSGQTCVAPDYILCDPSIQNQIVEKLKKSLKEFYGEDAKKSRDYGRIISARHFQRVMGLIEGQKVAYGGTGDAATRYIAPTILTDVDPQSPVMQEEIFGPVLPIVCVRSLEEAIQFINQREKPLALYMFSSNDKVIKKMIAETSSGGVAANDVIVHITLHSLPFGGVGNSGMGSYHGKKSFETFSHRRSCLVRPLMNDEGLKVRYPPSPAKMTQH
Experiment: ALDH3A1 biochemical assay (benzaldehyde/NADP+, diaphorase-resazurin readout, 1,536-well)
Conditions: for CC-v2: curve class

SMILES	AC50	Efficacy (Table S2, in-house analogs)	CC-v2 (Table S2, in-house analogs)	Efficacy (Table S1, primary screen)	CC-v2 (Table S1, primary screen)
O=C(NCc1cccc(F)c1)c1csc(N2CCN(c3ccc(Cl)cc3)CC2)n1 [Compound 1]	0.71 µM	-61.67	-1.2	–	–
COC(=O)c1ccc2nc(CO[C@H]3CN(Cc4ccc5ccccc5n4)C[C@H]3F)[nH]c2c1 [NCGC00391159-01]	0.79 µM	-109.85	-1.1	–	–
COc1ccc(-n2nc(C)c([C@@H]3C=C[C@@H](NCc4cccc(Cl)c4)C3)c2C)cc1 [NCGC00391691-01]	22.4 µM	-46.23	-2.2	–	–
COC(=O)c1ccc2nc(CO[C@H]3CN(C(=O)C4CCOCC4)C[C@H]3F)[nH]c2c1 [NCGC00392526-01]	28.2 µM	-67.89	-3	–	–
Cc1nn(-c2ccc(C(F)(F)F)cc2)c(C)c1[C@@H]1C=C[C@@H](NCc2ccc(N(C)C)cc2)C1 [NCGC00392637-01]	12.6 µM	-37.26	-2.2	–	–
COC(=O)c1ccc2nc(CO[C@H]3CN(C(C)=O)C[C@H]3F)[nH]c2c1 [NCGC00392964-01]	0.32 µM	-32.94	-1.2	–	–
COC(=O)c1ccc2nc(CO[C@H]3CN(Cc4ccc(C(F)(F)F)cc4)C[C@H]3F)[nH]c2c1 [NCGC00392986-01]	28.2 µM	-62.94	-2.2	–	–
Fc1ccc2[nH]c(CO[C@H]3CN(Cc4ccc5ccccc5n4)C[C@H]3F)nc2c1 [NCGC00393065-01]	0.45 µM	-92.90	-1.1	–	–
Cc1cc(Cl)ccc1-n1nc(C)c([C@@H]2C=C[C@@H](NC(=O)c3ccc(N(C)C)cc3)C2)c1C [NCGC00394621-01]	3.98 µM	-97.74	-1.1	–	–
COCC(=O)Nc1ncncc1-c1noc([C@@H]2CCCN2Cc2cc(OC)c(OC)c(OC)c2)n1 [NCGC00394846-01]	15.8 µM	–	–	-70.18	-2.2
Cc1ccc(-n2nc(C)c([C@@H]3C=C[C@@H](NCc4ccc(N(C)C)cc4)C3)c2C)cc1Cl [NCGC00395823-01]	14.1 µM	-101.87	-2.1	–	–
COc1ccc(NC(=O)N[C@H]2C[C@@H](C(=O)N[C@@H](Cc3cccs3)C(N)=O)N(C(=O)CSC)C2)cc1 [NCGC00398253-01]	14.1 µM	–	–	-63.09	-2.2
Cc1nn(CCC#N)c(C)c1[C@@H]1C=C[C@@H](NC(=O)Nc2ccc(Cl)cc2)C1 [NCGC00399959-01]	28.2 µM	-62.15	-2.2	–	–
Cc1nn(-c2ccc(C(C)C)cc2)c(C)c1[C@@H]1C=C[C@@H](NCc2ccc(F)cc2)C1 [NCGC00401594-01]	12.6 µM	-91.30	-2.2	–	–
COc1ccc(CNc2cc3c(cn2)CN(Cc2ccccc2)CCN3)cc1OC [NCGC00411020-01]	14.1 µM	–	–	-49.01	-2.2
CNC(=O)c1cccc(-c2cnc3[nH]cc(CC(=O)N(C)c4ccccc4)c3c2)c1 [NCGC00412252-01]	0.25 µM	-26.81	-1.4	–	–
CNC(=O)c1cccc(-c2cnc3[nH]cc(CC(=O)NCC(C)C)c3c2)c1 [NCGC00412294-01]	12.6 µM	-83.58	-1.1	–	–
CNC(=O)c1cccc(-c2cnc3[nH]cc(CC(=O)Nc4ccccc4C)c3c2)c1 [NCGC00412345-01]	5.62 µM	-73.33	-2.4	–	–
CC1(COCC2CC2)COc2ccc(C(=O)Nc3cccc([S+](C)(=O)[O-])c3)cc2N1 (stereo not drawn) [NCGC00416184-01]	35.5 µM	–	–	-42.40	-2.4
CN1CCOc2c(C(=O)NCCC(N)=O)cc(-c3ccc(CO)cc3)cc21 [NCGC00417044-01]	17.8 µM	-40.76	-2.2	–	–
CN1CCOc2c(C(=O)NCCC(N)=O)cc(-c3ccccc3O)cc21 [NCGC00417061-01]	0.63 µM	-48.22	-1.2	–	–
Cc1cc(CNC(=O)c2cc(-c3cnn(C)c3)cc3c2OCCN3C)no1 [NCGC00417081-01]	15.8 µM	-39.10	-2.2	–	–
COCc1nc(N2CCC(Cn3cccn3)CC2)cc([C@H]2C[C@H](N)C2)n1 [NCGC00422389-01]	15.8 µM	–	–	-81.78	-3
CCn1nc(C)c(CNC(=O)c2cc(COc3ccc4ncccc4c3)on2)c1C [NCGC00426725-01]	28.2 µM	–	–	-57.51	-2.2

Continued, values first:

AC50	Efficacy (Table S2, in-house analogs)	CC-v2 (Table S2, in-house analogs)	Efficacy (Table S1, primary screen)	CC-v2 (Table S1, primary screen)	SMILES
2.51 µM	-72.54	-1.2	–	–	COc1cccc(N2CCN(c3nc(C(=O)NCc4cccc(C)c4)cs3)CC2)c1 [Compound 2]
12.6 µM	-54.71	-2.2	–	–	COc1cccc(N2CCN(c3nc(C(=O)NCc4ccco4)cs3)CC2)c1 [Compound 3]
7.94 µM	–	–	-29.03	-1.4	CC(=O)Nc1ccc(CN2CC(Oc3ccc4c(c3)OCO4)C2)cc1 [NCGC00373680-01]
15.8 µM	-69.78	-2.4	–	–	COc1ccc(CN2C[C@@H](F)[C@@H](OCc3nc4cnccc4[nH]3)C2)cc1 [NCGC00391075-01]
25.1 µM	-31.39	-2.4	–	–	COc1ccc(-n2nc(C)c([C@@H]3C=C[C@@H](NCc4ccccc4)C3)c2C)cc1 [NCGC00391544-01]
0.18 µM	-21.56	-1.4	–	–	COC(=O)c1ccc2nc(CO[C@H]3CN(C4CCOCC4)C[C@H]3F)[nH]c2c1 [NCGC00392980-01]
4.47 µM	-26.14	-2.4	–	–	Cc1ccc2[nH]c(CO[C@H]3CN(Cc4ccc(F)c(F)c4)C[C@H]3F)nc2c1 [NCGC00392991-01]
0.32 µM	-23.33	-1.4	–	–	Cc1ccc2[nH]c(CO[C@H]3CN(C4CCOCC4)C[C@H]3F)nc2c1 [NCGC00392993-01]
28.2 µM	-105.83	-2.1	–	–	COc1ccc(-n2nc(C)c([C@@H]3C=C[C@@H](NCc4ccc(N(C)C)cc4)C3)c2C)cc1 [NCGC00394616-01]
35.5 µM	–	–	-44.61	-2.2	C[S+](=O)([O-])c1ccc(CN2C[C@H](O)C[C@H]2c2nc(C3CC3)no2)cc1 [NCGC00396353-01]
3.16 µM	-51.19	-1.2	–	–	Cc1nn(Cc2ccccc2)c(C)c1[C@@H]1C=C[C@@H](NC(=O)c2ccco2)C1 [NCGC00397524-03]
35.5 µM	–	–	-17.95	-2.4	NC(=O)[C@H](Cc1ccc(O)cc1)NC(=O)[C@@]1(O)C[C@@H](O)[C@H](O)[C@@H](NC(=O)c2ccc(F)c(Cl)c2)C1 [NCGC00398197-01]
28.2 µM	–	–	-30.64	-2.4	COc1cccc(NC(=O)O[C@@H]2CO[C@H]3[C@@H]2OC[C@@H]3Nc2nccc(-c3ccccc3)n2)c1 [NCGC00398388-01]
14.1 µM	-93.02	-1.1	–	–	COc1ccc(NC(=O)N[C@@H]2C=C[C@@H](c3c(C)nn(CCC#N)c3C)C2)cc1 [NCGC00399960-01]
39.8 µM	–	–	-39.06	-2.2	CNCc1cn(C[C@H]2O[C@@H](CC(=O)NCc3ccc(F)cc3)[C@H](O)[C@@H]2O)nn1 [NCGC00400077-01]
22.4 µM	-83.17	-2.2	–	–	Cc1nn(Cc2ccccc2)c(C)c1[C@@H]1C=C[C@@H](NC(=O)Nc2ccccc2)C1 [NCGC00400191-01]
44.7 µM	–	–	-38.45	-2.2	CNC(=O)c1cccc(-c2cnc(Nc3cncnc3)c3c2CCO3)c1 [NCGC00412778-01]
17.8 µM	-40.16	-2.2	–	–	COc1cccc(-c2cc(C(=O)NCc3cnn(C)c3)c3c(c2)N(C)CCO3)c1OC [NCGC00417015-01]
14.1 µM	-80.78	-2.2	–	–	CN1CCOc2c(C(=O)NCCC(N)=O)cc(-c3ccc(O)c(F)c3)cc21 [NCGC00417031-01]
20 µM	-27.04	-2.4	–	–	COc1cc(F)ccc1-c1cc(C(=O)NCCC(N)=O)c2c(c1)N(C)CCO2 [NCGC00417040-01]
28.2 µM	-77.64	-2.2	–	–	CC(=O)Nc1cccc(-c2cc(C(=O)NCc3cnn(C)c3)c3c(c2)N(C)CCO3)c1 [NCGC00417085-01]
0.79 µM	-54.49	-1.4	–	–	CN1CCOc2c(C(=O)NCc3cccnc3)cc(-c3cnn(C)c3)cc21 [NCGC00417099-01]
2.82 µM	-61.06	-2.2	–	–	Cc1c(-c2cc(C(=O)NCc3cccnc3)c3c(c2)N(C)CCO3)cnn1C [NCGC00417124-01]
10 µM	-39.09	-1.2	–	–	Cc1nn(-c2ccc(C(C)C)cc2)c(C)c1[C@@H]1C=C[C@@H](NCc2cccc(C#N)c2)C1 [NCGC00421409-01]
